Assay results: publication PMC12892976, “Alkylation-based optimization of antifungal FPPS inhibitors yields a potent, broad-spectrum lipophilic zoledronate derivative” (mBio, 2025)
Values after ≈ are worked out from the molar mass of the structure shown.

Columns and labels:
Aspergillus udagawae [1] = assay: MIC broth microdilution (CLSI); format: cell-based; conditions: Aspergillus udagawae 8G81
Description: (§2) Antifungal susceptibility was determined by broth microdilution according to the CLSI guidelines described in M27-Ed4 ([16]).

[2] = tested on: Cryptococcus deneoformans; assay: MIC broth microdilution (CLSI); format: cell-based; conditions: Cryptococcus deneoformans JEC21
Description: as §2

[3] = tested on: Trichophyton interdigitale; assay: MIC broth microdilution (CLSI); format: cell-based; conditions: Trichophyton interdigitale R-234
Description: as §2

Candida tropicalis = assay: MIC broth microdilution (CLSI); format: cell-based; conditions: Candida tropicalis M230640
Description: as §2

Candida auris = assay: MIC broth microdilution (CLSI); format: cell-based; conditions: Candida auris CDC-0384
Description: as §2

[4] = tested on: Cryptococcus neoformans biofilms; assay: biofilm XTT reduction assay (SIC80, SFICI); conditions: for SICc: Cryptococcus neoformans; for SIC80: agent alone, Cryptococcus neoformans H99
Description: (§3) Biofilms of Cryptococcus were seeded in DMEM, and all other species were seeded in RPMI-1640.

[5] = tested on: Trichophyton interdigitale; assay: checkerboard drug interaction (FICI, MICc);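 note: simplified diagonal checkerboard screen pairing antifungals with FPPS inhibitors, FICI values calculated under the Loewe additivity model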
Description: (§4) Drug interactions between antifungals and FPPS inhibitors were investigated using a simplified checkerboard diagonal screening method ([45]). […] FICIs were determined according to the Loewe additivity model ([17]).

Aspergillus udagawae [6] = assay: checkerboard drug interaction (FICI, MICc); format: cell-based;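 note: simplified diagonal checkerboard screen pairing antifungals with FPPS inhibitors, FICI calculated using the Loewe additivity model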
Description: as §4

Microsporum canis = assay: MIC broth microdilution (CLSI); conditions: Microsporum canis R-232
Description: as §2

Candida dubliniensis = assay: MIC broth microdilution (CLSI); format: cell-based; conditions: Candida dubliniensis M230642
Description: as §2

Nannizzia nana = assay: MIC broth microdilution (CLSI); format: cell-based; conditions: Nannizzia nana R-133
Description: as §2

Aspergillus felis = assay: checkerboard drug interaction (FICI, MICc); format: cell-based;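 note: simplified diagonal checkerboard screen pairing antifungals with FPPS inhibitors, FICI calculated under the Loewe additivity model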
Description: as §4

Rhizopus oryzae = assay: checkerboard drug interaction (FICI, MICc); format: cell-based;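 note: simplified diagonal checkerboard screen pairing antifungals with FPPS inhibitors, FICI calculated under the Loewe additivity model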
Description: as §4

Pichia kudriavzevii = assay: MIC broth microdilution (CLSI); format: cell-based; conditions: Pichia kudriavzavii ATCC 6258
Description: Antifungal susceptibility was determined by broth microdilution according to the CLSI guidelines described in M27-Ed4 ([16]). […] MFC was determined by back-plating drug-treated cultures from MIC broths onto SDA plates. The MFC was defined as the lowest concentration from which no colonies could be cultured.

[7] = tested on: Candida albicans biofilms; assay: biofilm XTT reduction assay (SIC80, SFICI); conditions: for SICc: Candida albicans; for SIC80: agent alone, Candida albicans SC5314
Description: as §3

Scedosporium apiospermum [8] = assay: MIC broth microdilution (CLSI); format: cell-based; conditions: Scedosporium apiospermum 04-16-022-2268
Description: as §2

Trichophyton soudanense = assay: MIC broth microdilution (CLSI); conditions: Trichophyton soudanense R-167
Description: as §2

[9] = tested on: Cryptococcus deuterogattii biofilms; assay: biofilm XTT reduction assay (SIC80, SFICI); conditions: for SICc: Cryptococcus deuterogattii; for SIC80: agent alone, Cryptococcus deuterogattii R265
Description: as §3

Cryptococcus tetragattii = assay: MIC broth microdilution (CLSI); format: cell-based; conditions: Cryptococcus tetragattii WM779
Description: as §2

Aspergillus parafelis = assay: checkerboard drug interaction (FICI, MICc);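 note: simplified diagonal checkerboard screen pairing antifungals with FPPS inhibitors, FICI calculated under the Loewe additivity model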
Description: as §4

[10] = tested on: Saccharomyces cerevisiae biofilms; assay: biofilm XTT reduction assay (SIC80, SFICI); format: cell-based; conditions: for SICc: Saccharomyces cerevisiae; for SIC80: agent alone, Saccharomyces cerevisiae S288c
Description: as §3

[11] = tested on: Trichophyton rubrum biofilms; assay: biofilm XTT reduction assay (SIC80, SFICI); format: cell-based; conditions: biofilm; for SICc: Trichophyton rubrum; for SIC80: agent alone, Trichophyton rubrum 213
Description: as §3

Mucor circinelloides = assay: checkerboard drug interaction (FICI, MICc); format: cell-based;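 note: simplified diagonal checkerboard screen pairing antifungals with FPPS inhibitors, FICI calculated under the Loewe additivity model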
Description: as §4

Fusarium oxysporum = assay: checkerboard drug interaction (FICI, MICc); format: cell-based
Description: as §4

Candida parapsilosis = assay: checkerboard drug interaction (FICI, MICc); format: cell-based;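 note: simplified diagonal checkerboard screen pairing antifungals with FPPS inhibitors, with FICI computed under the Loewe additivity model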
Description: as §4

[12] = tested on: Aspergillus flavus biofilms; assay: biofilm XTT reduction assay (SIC80, SFICI); format: cell-based; conditions: for SICc: Aspergillus flavus; for SIC80: agent alone, Aspergillus flavus ATCC 204304
Source text: (§1) […]. […] […].

[13] = tested on: Aspergillus fumigatus biofilms; assay: biofilm XTT reduction assay (SIC80, SFICI); format: cell-based; conditions: for SICc: Aspergillus fumigatus; for SIC80: agent alone, Aspergillus fumigatus ATCC 204305
Source text: as §1

[14] = tested on: Candida glabrata biofilms; assay: biofilm XTT reduction assay (SIC80, SFICI); format: cell-based; conditions: for SICc: Candida glabrata; for SIC80: agent alone, Candida glabrata CBS138
Source text: as §1

[15] = tested on: Cryptococcus bacillisporus; assay: MIC broth microdilution (CLSI); format: cell-based; conditions: Cryptococcus bacillisporus NIH179
Description: as §2

[16] = tested on: Cryptococcus bacillisporus; assay: checkerboard drug interaction (FICI, MICc); format: cell-based;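 note: interaction of antifungals with FPPS inhibitors assessed by a simplified diagonal checkerboard screen, with FICI computed under the Loewe additivity model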
Description: as §4

Nannizzia gypsea = assay: MIC broth microdilution (CLSI); format: cell-based; conditions: Nannizzia gypsea R-131
Description: as §2

Scedosporium apiospermum [17] = assay: checkerboard drug interaction (FICI, MICc); format: cell-based;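 note: simplified diagonal checkerboard screen of antifungal plus FPPS inhibitor pairs, with FICI computed under the Loewe additivity model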
Description: as §4

## CC(=O)N1CCN(c2ccc(OCC3COC(Cn4ccnc4)(c4ccc(Cl)cc4Cl)O3)cc2)CC1 (stereo not shown) [KET, ketoconazole]
Aspergillus udagawae [1]
  MIC / MEC: 8 µg/mL (≈ 15.1 µM)
[2]
  MIC / MEC: 0.13 µg/mL (≈ 0.245 µM)
[3]
  MIC / MEC: 8 µg/mL (≈ 15.1 µM)
Candida tropicalis
  MIC / MEC: 8 µg/mL (≈ 15.1 µM)
Candida auris
  MIC / MEC: 4 µg/mL (≈ 7.53 µM)
[4]; KET:10-ZOL combination
  SICc: 16 µg/mL
[4]
  SIC80: 32 µg/mL
[5]; in combination with 10-ZOL
  antifungal MICc: 0.5
[5]; in combination with ZOL
  antifungal MICc: 2
Aspergillus udagawae [6]; in combination with 10-ZOL
  antifungal MICc: 0.5
Aspergillus udagawae [6]; in combination with ZOL
  antifungal MICc: 2
Microsporum canis
  MIC / MEC: 16 µg/mL (≈ 30.1 µM)
Candida dubliniensis
  MIC / MEC: 0.02 µg/mL (≈ 0.0376 µM)
Nannizzia nana
  MIC / MEC: 0.5 µg/mL (≈ 0.941 µM)
Aspergillus felis; in combination with 10-ZOL
  antifungal MICc: 4
Aspergillus felis; in combination with ZOL
  antifungal MICc: 8
Rhizopus oryzae; in combination with 10-ZOL
  antifungal MICc: 4
Rhizopus oryzae; in combination with ZOL
  antifungal MICc: 16
Pichia kudriavzevii
  MIC / MEC: 0.25 µg/mL (≈ 0.47 µM)
[7]; KET:10-ZOL combination
  SICc: 32 µg/mL
[7]
  SIC80: 64 µg/mL
Scedosporium apiospermum [8]
  MIC / MEC: 8 µg/mL (≈ 15.1 µM)
Trichophyton soudanense
  MIC / MEC: 4 µg/mL (≈ 7.53 µM)
[9]; KET:10-ZOL combination
  SICc: 32 µg/mL
[9]
  SIC80: 256 µg/mL
Cryptococcus tetragattii
  MIC / MEC: 0.5 µg/mL (≈ 0.941 µM)
Aspergillus parafelis; in combination with 10-ZOL
  antifungal MICc: 16
Aspergillus parafelis; in combination with ZOL
  antifungal MICc: 32
[10]; KET:10-ZOL combination
  SICc: 16 µg/mL
[10]
  SIC80: 32 µg/mL
[11]; KET:10-ZOL combination
  SICc: 64 µg/mL
[11]
  SIC80: 256 µg/mL
Mucor circinelloides; in combination with 10-ZOL
  antifungal MICc: 4
Mucor circinelloides; in combination with ZOL
  antifungal MICc: 8
Fusarium oxysporum; in combination with 10-ZOL
  antifungal MICc: 16
Fusarium oxysporum; in combination with ZOL
  antifungal MICc: 4
Candida parapsilosis; in combination with 10-ZOL
  antifungal MICc: 0.015
Candida parapsilosis; in combination with ZOL
  antifungal MICc: 0.03
[12]; KET:10-ZOL combination
  SICc: 64 µg/mL
[12]
  SIC80: 128 µg/mL
[13]; KET:10-ZOL combination
  SICc: 64 µg/mL
[13]
  SIC80: 256 µg/mL
[14]; KET:10-ZOL combination
  SICc: 64 µg/mL
[14]
  SIC80: 256 µg/mL
[15]
  MIC / MEC: 0.25 µg/mL (≈ 0.47 µM)
[16]; in combination with 10-ZOL
  antifungal MICc: 0.125
[16]; in combination with ZOL
  antifungal MICc: 0.25
Nannizzia gypsea
  MIC / MEC: 16 µg/mL (≈ 30.1 µM)
Scedosporium apiospermum [17]; in combination with 10-ZOL
  antifungal MICc: 4
Scedosporium apiospermum [17]; in combination with ZOL
  antifungal MICc: 4

## CCC(C)n1ncn(-c2ccc(N3CCN(c4ccc(OCC5COC(Cn6cncn6)(c6ccc(Cl)cc6Cl)O5)cc4)CC3)cc2)c1=O (stereo not shown) [ITR, itraconazole]
Aspergillus udagawae [1]
  MIC / MEC: 1 µg/mL (≈ 1.42 µM)
[2]
  MIC / MEC: 0.06 µg/mL (≈ 0.085 µM)
[3]
  MIC / MEC: 1 µg/mL (≈ 1.42 µM)
Candida tropicalis
  MIC / MEC: 0.25 µg/mL (≈ 0.354 µM)
Candida auris
  MIC / MEC: 2 µg/mL (≈ 2.83 µM)
[4]; ITR:10-ZOL combination
  SICc: 32 µg/mL
[4]
  SIC80: 64 µg/mL
[5]; in combination with 10-ZOL
  antifungal MICc: 0.5
[5]; in combination with ZOL
  antifungal MICc: 0.25
Aspergillus udagawae [6]; in combination with 10-ZOL
  antifungal MICc: 0.25
Aspergillus udagawae [6]; in combination with ZOL
  antifungal MICc: 0.5
Microsporum canis
  MIC / MEC: 0.5 µg/mL (≈ 0.709 µM)
Candida dubliniensis
  MIC / MEC: 0.13 µg/mL (≈ 0.184 µM)
Nannizzia nana
  MIC / MEC: 0.25 µg/mL (≈ 0.354 µM)
Aspergillus felis; in combination with 10-ZOL
  antifungal MICc: 0.5
Aspergillus felis; in combination with ZOL
  antifungal MICc: 1
Rhizopus oryzae; in combination with 10-ZOL
  antifungal MICc: 0.125
Rhizopus oryzae; in combination with ZOL
  antifungal MICc: 2
Pichia kudriavzevii
  MIC / MEC: 1 µg/mL (≈ 1.42 µM)
[7]; ITR:10-ZOL combination
  SICc: 128 µg/mL
[7]
  SIC80: 256 µg/mL
Scedosporium apiospermum [8]
  MIC / MEC: 8 µg/mL (≈ 11.3 µM)
Trichophyton soudanense
  MIC / MEC: 0.5 µg/mL (≈ 0.709 µM)
[9]; ITR:10-ZOL combination
  SICc: 64 µg/mL
[9]
  SIC80: 128 µg/mL
Cryptococcus tetragattii
  MIC / MEC: 0.5 µg/mL (≈ 0.709 µM)
Aspergillus parafelis; in combination with 10-ZOL
  antifungal MICc: 2
Aspergillus parafelis; in combination with ZOL
  antifungal MICc: 8
[10]; ITR:10-ZOL combination
  SICc: 16 µg/mL
[10]
  SIC80: 32 µg/mL
[11]; ITR:10-ZOL combination
  SICc: 64 µg/mL
[11]
  SIC80: >256 µg/mL
Mucor circinelloides; in combination with 10-ZOL
  antifungal MICc: 0.25
Mucor circinelloides; in combination with ZOL
  antifungal MICc: 0.06
Fusarium oxysporum; in combination with 10-ZOL
  antifungal MICc: 1
Fusarium oxysporum; in combination with ZOL
  antifungal MICc: 1
Candida parapsilosis; in combination with 10-ZOL
  antifungal MICc: 0.125
Candida parapsilosis; in combination with ZOL
  antifungal MICc: 0.062
[12]; ITR:10-ZOL combination
  SICc: 64 µg/mL
[12]
  SIC80: 128 µg/mL
[13]; ITR:10-ZOL combination
  SICc: 128 µg/mL
[13]
  SIC80: 256 µg/mL
[14]; ITR:10-ZOL combination
  SICc: 128 µg/mL
[14]
  SIC80: 256 µg/mL
[15]
  MIC / MEC: 0.06 µg/mL (≈ 0.085 µM)
[16]; in combination with 10-ZOL
  antifungal MICc: 0.033
[16]; in combination with ZOL
  antifungal MICc: 0.0625
Nannizzia gypsea
  MIC / MEC: 2 µg/mL (≈ 2.83 µM)
Scedosporium apiospermum [17]; in combination with 10-ZOL
  antifungal MICc: 4
Scedosporium apiospermum [17]; in combination with ZOL
  antifungal MICc: 4
